From patent US20060035829A1, “Chemokine combinations to mobilize progenitor/stem cells” (AnorMED Inc., priority 2004, published 2006)

Assays:
[1] = tested on: CFU-GM progenitor cells in peripheral blood; assay: Peripheral blood progenitor cell (PBSC) mobilization, CFU-GM assay of PBMC; format: in vivo; conditions: BALB/c mice, mean (X)
Description: Experimental procedures are as previously described (Pelus, L. M., et al., Blood (2001) 97:1534-1542; Blood (2004) 103:110-119). […] Mobilization experiments were performed in BALB/c mice (3 mice group). For mobilization with AMD3100 or GROβ alone, PBSC mobilization was quantified at the peak of mobilization determined for either agent in previous experiments. Thus, PBSC mobilization was quantified at 15 mins following an s.c. injection of 2.5 mg/kg GROβ and at 1 hour following an s.c. injection of 5 mg/kg AMD3100. In the combination experiment, PBSC mobilization was quantitated at 5, 15, 30, 60 and 150 minutes after a single subcutaneous injection of 2.5 mg/kg GROβ (R & D Systems) in saline and 5 mg/kg AMD3100. The compounds were injected separately and simultaneously at different s.c. sites. Injections were scheduled so that control and mobilized mice were evaluated at the same time in every experiment. Mice were killed by CO2 asphyxiation and blood was obtained by cardiac puncture using syringes coated with EDTA (ethylenediaminetetra acetic acid). PBMC's were obtained by separation of peripheral blood (0.4 mL) on Lympholyte-M (Cedarlane Labs, Hornby, ON, Canada). Complete blood counts (CBC's) were performed on a Hemavet Mascot (CDC Technologies, Oxford, Conn.). Manual differentials were performed on Wright-Giemsa-stained (Hema-Tek 1000, Bayer, Elkhart, Ind.) blood smears or spleen and bone marrow cell cytospin preparations (Shandon, Pittsburgh, Pa.). CFU-GM Assay PBMC's were assayed for CFU-GM in McCoy 5A media with 15% heat-inactivated fetal bovine serum (Hyclone Sterile Systems, Logan, Utah) and 0.3% agar (Difco Laboratories, Detroit, Mich.). PBMC's were cultured at 2×10^5/mL. CFU-GM were stimulated with 10 ng/mL recombinant murine GM-CSF (rmGM-CSF), 10 ng/mL rmIL-1α, and 50 ng/mL stem cell factor (SCF). Triplicate cultures from individual animals were incubated at 37° C., 5% CO2, 5% O2 in air for 7 days. Total CFU-GM/mL blood was determined by multiplying CFU frequencies by PBMC/ml blood corrected for white blood cell (WBC) recovery after Lympholyte-M separation.

[2] = tested on: peripheral blood cells; assay: Peripheral blood differential summary (complete blood counts, manual differentials); format: in vivo; conditions: BALB/c mice
Description: Mobilization experiments were performed in BALB/c mice (3 mice group). For mobilization with AMD3100 or GROβ alone, PBSC mobilization was quantified at the peak of mobilization determined for either agent in previous experiments. Thus, PBSC mobilization was quantified at 15 mins following an s.c. injection of 2.5 mg/kg GROβ and at 1 hour following an s.c. injection of 5 mg/kg AMD3100.
In the combination experiment, PBSC mobilization was quantitated at 5, 15, 30, 60 and 150 minutes after a single subcutaneous injection of 2.5 mg/kg GROβ (R & D Systems) in saline and 5 mg/kg AMD3100. The compounds were injected separately and simultaneously at different s.c. sites. Injections were scheduled so that control and mobilized mice were evaluated at the same time in every experiment. Mice were killed by CO2 asphyxiation and blood was obtained by cardiac puncture using syringes coated with EDTA (ethylenediaminetetra acetic acid). PBMC's were obtained by separation of peripheral blood (0.4 mL) on Lympholyte-M (Cedarlane Labs, Hornby, ON, Canada). Complete blood counts (CBC's) were performed on a Hemavet Mascot (CDC Technologies, Oxford, Conn.). Manual differentials were performed on Wright-Giemsa-stained (Hema-Tek 1000, Bayer, Elkhart, Ind.) blood smears or spleen and bone marrow cell cytospin preparations (Shandon, Pittsburgh, Pa.).

| Molecule | CFU-GM/ml ([1]; 15 min after s.c. injection (GROβ 2.5 mg/kg, AMD3100 5 mg/kg)) | CFU-GM Mobilized Above Control ([1]; 15 min after s.c. injection) | Fold Inc (CFU-GM/ml over PBS control) ([1]; 15 min after s.c. injection) | % LYMPH ([2]; 15 min after s.c. injection) | % MONO ([2]; 15 min after s.c. injection) | % PMN ([2]; 15 min after s.c. injection) | LYMPH ([2]; 15 min after s.c. injection) | MONO ([2]; 15 min after s.c. injection) | PMN ([2]; 15 min after s.c. injection) | WBC ([2]; 15 min after s.c. injection) | CFU-GM/ml ([1]; 60 min after s.c. injection (GROβ 2.5 mg/kg, AMD3100 5 mg/kg)) | CFU-GM Mobilized Above Control ([1]; 60 min after s.c. injection) | Fold Inc (CFU-GM/ml over PBS control) ([1]; 60 min after s.c. injection) | % LYMPH ([2]; 60 min after s.c. injection) | % MONO ([2]; 60 min after s.c. injection) | % PMN ([2]; 60 min after s.c. injection) | LYMPH ([2]; 60 min after s.c. injection) | MONO ([2]; 60 min after s.c. injection) | PMN ([2]; 60 min after s.c. injection) | WBC ([2]; 60 min after s.c. injection) |
| --- | --- | --- | --- | --- | --- | --- | --- | --- | --- | --- | --- | --- | --- | --- | --- | --- | --- | --- | --- | --- |
| GROβ: chemokine GROβ (R & D Systems) in saline; acts via the CXCR2 receptor | 2505.54 CFU-GM/ml | 2383.50 | 20.53 | 65.19% | 5.65% | 27.35% | 7.76 | 0.67 | 3.34 | 11.98 |  |  |  |  |  |  |  |  |  |  |
| c1cc(CN2CCCNCCNCCCNCC2)ccc1CN1CCCNCCNCCCNCC1 [AMD3100, 1,1′-[1,4-phenylene-bis(methylene)]-bis-1,4,8,11-tetraazacyclotetradecane] |  |  |  |  |  |  |  |  |  |  | 698.19 CFU-GM/ml | 576.15 | 5.72 | 59.17% | 3.27% | 36.61% | 8.54 | 0.47 | 5.35 | 14.49 |
